Source: patent WO2019242687A1, “1,3-dioxane-4,6-dione compound, and preparation method, pharmaceutical composition, and application thereof” (Shanghai Institute of Materia Medica of CAS, priority 2018, dated 2018)
Substitutions are numbered along the chain they refer to. Entries after “also recorded” stand apart in the source; their conditions may differ.

Experiments:
Assay type in all cases: biochemical
SIRT1 [1] = target: T1, SIRT1 (Homo sapiens, UniProt Q96EB6); assay: SIRT1 enzyme activity test (deacetylase inhibition)
T1 sequence (Q96EB6 1-747): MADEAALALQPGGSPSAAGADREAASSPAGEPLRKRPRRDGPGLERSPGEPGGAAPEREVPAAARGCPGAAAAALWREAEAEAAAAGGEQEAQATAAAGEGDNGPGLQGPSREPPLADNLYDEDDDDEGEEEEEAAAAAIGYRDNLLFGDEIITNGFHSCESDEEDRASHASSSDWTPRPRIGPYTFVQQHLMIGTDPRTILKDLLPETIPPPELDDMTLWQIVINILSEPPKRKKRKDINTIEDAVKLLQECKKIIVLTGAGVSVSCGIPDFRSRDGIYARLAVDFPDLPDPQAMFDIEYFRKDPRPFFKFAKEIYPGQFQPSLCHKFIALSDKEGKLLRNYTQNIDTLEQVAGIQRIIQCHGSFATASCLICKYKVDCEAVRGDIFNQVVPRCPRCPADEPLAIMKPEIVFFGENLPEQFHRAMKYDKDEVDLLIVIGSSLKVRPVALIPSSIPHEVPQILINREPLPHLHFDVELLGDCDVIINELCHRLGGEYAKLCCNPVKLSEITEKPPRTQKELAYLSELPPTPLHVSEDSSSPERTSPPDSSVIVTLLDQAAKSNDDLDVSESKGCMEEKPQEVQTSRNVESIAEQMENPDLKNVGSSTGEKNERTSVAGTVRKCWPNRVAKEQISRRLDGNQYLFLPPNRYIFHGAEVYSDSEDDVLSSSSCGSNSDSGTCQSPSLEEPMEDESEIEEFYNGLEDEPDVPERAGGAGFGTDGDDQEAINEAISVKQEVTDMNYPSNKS

SIRT1 [2] = target: T1, SIRT1; assay: Enzyme kinetic reaction test (inhibition type, Michaelis-Menten and Lineweaver-Burk plots)
SIRT1 wild type = target: T2, SIRT1 wild type (Homo sapiens, UniProt Q96EB6); assay: Inhibitory constant on SIRT1 wild type
T2 sequence (Q96EB6 1-747): T1 sequence (Q96EB6 1-747)

SIRT1 N346A = target: T3, SIRT1 N346A (Homo sapiens, UniProt Q96EB6, N346A); assay: Inhibitory constant on SIRT1 mutant N346A
T3 construct: made in house
T3 sequence (Q96EB6 1-747 N346A): T1 sequence (Q96EB6 1-747) with N346A

SIRT1 I347A = target: T4, SIRT1 I347A (Homo sapiens, UniProt Q96EB6, I347A); assay: Inhibitory constant on SIRT1 mutant I347A
T4 construct: made in house
T4 sequence (Q96EB6 1-747 I347A): T1 sequence (Q96EB6 1-747) with I347A

[3] = fixed Abz polypeptide, with increasing S3 concentration
[4] = fixed NAD+, with increasing S3 concentration

Structure (SMILES): COc1cc(C=C2C(=O)OC(c3ccccc3)OC2=O)cc(Br)c1O (stereo not shown) [Compound S3, 5-(3-bromo-4-hydroxy-5-methoxybenzylidene) -2-phenyl-1,3-dioxane-4,6-dione]
- concentration dependence of SIRT1 inhibition (SIRT1 [1]; Figure 1, in vitro): 以浓度依赖性方式抑制SIRT1酶活; also recorded: inhibits SIRT1 activity in a concentration-dependent manner
- IC50 (SIRT1 [1]; Table 2, 1 μM SIRT1, 500 μM NAD+, 10 μM substrate peptide, 37 °C, 30 min): 1310 ± 260 nM
- Inhibition of SIRT1 deacylation (IC50) (SIRT1 [1]; Table 3, SITR1 [sic], 1 μM SIRT1, 500 μM NAD+, 10 μM substrate peptide): 1.31 ± 0.26
- apparent Michaelis constant Km′ for NAD+ (SIRT1 [2]; [3]): 不变
- initial velocity V0, NAD+ varied (SIRT1 [2]; [3]): 减小
- apparent Michaelis constant Km′ for Abz polypeptide (SIRT1 [2]; [4]): 减小
- initial velocity V0, substrate Abz polypeptide varied (SIRT1 [2]; [4]): 减小
- type of inhibition toward NAD+ (SIRT1 [2]; fixed acetylated peptide 30 μM, varied NAD+ 31.25-1000 μM, 0.5 μM SIRT1): 非竞争性抑制; also recorded: NAD +的非竞争性抑制剂
- binding site of compound on SIRT1 relative to substrate polypeptide and NAD+ sites (SIRT1 [2]; inferred from kinetics): 可能在底物多肽的结合位点; also recorded: 不在NAD +的结合位点
- Ki (SIRT1 wild type): 160 nM
- Ki (SIRT1 N346A; mutant N346A): 2470 nM
- sensitivity of mutant protein to compound S3 (SIRT1 N346A; mutation of residue 346 (so in the source)): 敏感性降低
- Ki (SIRT1 I347A): 670 nM
